From PMC4352280, “Bioactivity guided fractionation and hypolipidemic property of a novel HMG-CoA reductase inhibitor from Ficus virens Ait” (Lipids in Health and Disease, 2015)

Target: T1, HMG-CoA reductase (Homo sapiens, UniProt P04035)
T1 construct: gene HMGCR; catalytic domain of the human enzyme (recombinant GST fusion protein expressed in E. coli)
T1 sequence (P04035 426-888 limits assumed): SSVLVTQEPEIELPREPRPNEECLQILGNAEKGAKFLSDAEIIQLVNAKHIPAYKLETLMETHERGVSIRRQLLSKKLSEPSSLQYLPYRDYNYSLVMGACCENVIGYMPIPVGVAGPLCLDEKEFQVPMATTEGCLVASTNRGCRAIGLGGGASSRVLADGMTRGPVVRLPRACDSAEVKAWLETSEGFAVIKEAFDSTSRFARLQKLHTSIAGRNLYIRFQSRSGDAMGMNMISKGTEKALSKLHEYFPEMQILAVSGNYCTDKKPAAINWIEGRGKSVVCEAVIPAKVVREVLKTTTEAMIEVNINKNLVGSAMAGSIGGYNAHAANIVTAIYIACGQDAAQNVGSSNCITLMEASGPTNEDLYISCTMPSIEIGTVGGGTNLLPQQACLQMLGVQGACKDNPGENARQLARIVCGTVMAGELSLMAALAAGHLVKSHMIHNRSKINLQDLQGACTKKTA
Test: spectrophotometric HMG-CoA reductase assay; Lineweaver-Burk and Dixon plots
Type: biochemical

IC50: 141 nM
Compound: CCCCCCCCCCCCCCCCCCO[C@H]1O[C@H](CO[C@H]2O[C@H](CO)[C@@H](O)[C@H](O)[C@H]2O)[C@@H](O)[C@H](O)[C@H]1O [F18, n-Octadecanyl-O-α-D-glucopyranosyl(6′ → 1″)-O-α-D-glucopyranoside]
